Test results reported in US7915268B2, “8-substituted 2-(benzimidazolyl)purine derivatives for immunosuppression” (Wyeth LLC, priority 2006, dated 2011).

Legend:
[1] = test system: spontaneous autoimmune diabetes; conditions: NOD mouse; cited from earlier work
GVHD = conditions: in vivo; cited from earlier work
heart transplantation = conditions: murine heart transplantation; cited from earlier work
kidney transplantation = conditions: primate kidney transplantation; cited from earlier work
IFN-γ production = assay: IL-2-Induced IFN-γ Production in the Mouse; assay type: in vivo; conditions: oral dose at 30 mg/kg, BALB/c mice, serum IFN-γ
Procedure: IL-2-Induced IFN-γ Production in the Mouse
Administration of IL-2 leads to an increase in serum IFN-γ in the mouse due to NK secretion of the cytokine (Thornton S, Kuhn K A, Finkelman F D and Hirsch R. NK cells secrete high levels of IFN-γ in response to in vivo administration of IL-2. Eur J Immunol 2001 31:3355-3360). The experiment is carried out essentially according to the protocol in Thornton et al. and the test compounds are administered in order to determine the level of inhibition attained. In summary, female BALB/c mice are fasted for 12-18 hours before a study but have free access to water at all times. Test compounds are administered by gavage one hour before intraperitoneal injection of IL-2 and capture antibody. At termination of the studies, the mice are sacrificed by carbon dioxide inhalation, terminal blood samples are collected by cardiac puncture and serum is generated. Serum is stored frozen until assayed for IFN-γ, as described by the kit manufacturer (BD Pharmingen™, San Diego, Calif.).

Jak3 = target: T1, Jak3 (Homo sapiens, UniProt P52333); assay: Jak3 Kinase Assay (HTRF, GST-Jak3 catalytic domain); assay type: biochemical; conditions: 1 μM ATP, 60-min incubation, read-out: Jak 3 (Converted)
T1 construct: catalytic domain of Jak3 (508aa to 1124aa); made in house; host or cells: Sf9 insect cells (baculovirus, pFastBac 1)
T1 sequence (P52333 508-1124): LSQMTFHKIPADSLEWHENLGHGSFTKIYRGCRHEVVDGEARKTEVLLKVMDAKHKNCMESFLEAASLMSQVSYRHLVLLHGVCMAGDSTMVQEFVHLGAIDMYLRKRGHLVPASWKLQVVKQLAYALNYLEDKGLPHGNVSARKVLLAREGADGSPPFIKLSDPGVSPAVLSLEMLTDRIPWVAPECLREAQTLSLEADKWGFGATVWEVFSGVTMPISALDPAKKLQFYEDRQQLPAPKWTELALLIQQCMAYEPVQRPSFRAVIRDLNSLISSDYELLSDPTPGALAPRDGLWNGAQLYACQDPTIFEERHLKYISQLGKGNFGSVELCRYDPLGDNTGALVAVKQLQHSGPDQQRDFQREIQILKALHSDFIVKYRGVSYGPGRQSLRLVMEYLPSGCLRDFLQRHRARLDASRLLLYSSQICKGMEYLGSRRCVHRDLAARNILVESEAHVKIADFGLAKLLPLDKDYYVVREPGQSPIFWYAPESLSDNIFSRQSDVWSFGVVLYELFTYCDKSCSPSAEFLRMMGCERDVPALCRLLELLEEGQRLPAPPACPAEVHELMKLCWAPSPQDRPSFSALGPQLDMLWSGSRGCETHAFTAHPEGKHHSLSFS
Procedure: Human Jak3 cDNA was amplified by PCR. A fragment encoding the catalytic domain of Jak3 (508aa to 1124aa) was ligated with GST at 5′ end. This fused GST-Jak3 DNA fragment was cloned into the EcoRI site of the donor plasmid pFastBac 1 (Life Technologies #10359-016). The transformation, transposition, and transfection of insect cells (Sf9) were performed according to the manufacture's instructions. The cell lysate containing recombinant GST-Jak3 was used in the kinase assay. Anti-GST antibody (10 μg/ml, Sigma #G1417) was coated onto a 384-well plate at 4° C. overnight. Cell lysate containing GST-Jak3 (1:100 dilution) was added to the anti-GST coated plates, and GST-Jak3 was captured by immobilized anti-GST antibody. Testing compounds and substrate mix (50 mM HEPES, pH 7, 0.5 mM Na3VO4, 25 mM MgCl2, 1 mM DTT, 0.005% BSA, 1 μM ATP, and 4.5 μg/ml biotinyl poly-Glu, Ala, Tyr) were added to the plate to initiate the reaction. After a 60-min incubation, the reaction was stopped by 4 mM EDTA, and phosphorylation of biotinyl poly-Glu, Ala, Tyr was detected using 17 μg/ml Cy5-streptavidin (Amersham, #PA92005) and 2.7 μg/ml Europium-conjugated anti-phosphotyrosine antibody (PerkinElmer #AD0069) using homogeneous time-resolved fluorescence (HTRF) technology.

## COc1cc2ncnc(Nc3ccc(O)cc3)c2cc1OC [WHI-P131]
[1]
  spontaneous autoimmune diabetes development: prevent spontaneous autoimmune diabetes development
GVHD
  severity of GVHD: attenuate the severity of GVHD

## C[C@@H]1CCN(C(=O)CC#N)C[C@@H]1N(C)c1ncnc2[nH]ccc12 [CP-690,550]
Heart transplantation
  animal survival: prolong animal survival
Kidney transplantation
  animal survival: prolong animal survival

## N#Cc1ccc2ncn(-c3ncc4nc(-c5cncnc5)n(C5CCOc6c(F)ccc(F)c65)c4n3)c2c1 (centres unmarked) [Example 6]
IFN-γ production
  inhibit IFN-γ production: 93%
Jak3
  IC50: < 100 nM

## N#Cc1ccc2ncn(-c3ncc4nc(-c5cncnc5)n([C@@H]5CCOc6c(F)cccc65)c4n3)c2c1 [Example 13, 3-(9-((R)-8-fluorochroman-4-yl)-8-(pyrimidin-5-yl)-9H-purin-2-yl)-3H-benzo[d]imidazole-5-carbonitrile]
IFN-γ production
  inhibit IFN-γ production: 76%
Jak3
  IC50: < 100 nM
